Reference: patent US20210161804A1, “FLUTICASONE AND VILANTEROL FORMULATION AND INHALER” (KINDEVA DRUG DELIVERY L.P., priority 2018, published 2021)

Key:
[1] = Through life delivered dose (unit spray collection apparatus); assay type: physicochemical; conditions: beginning, middle, end of unit, 3 MDIs, 28.3 L/minute
Description: The through life delivered dose was determined using standard unit spray collection apparatus (USCA) fitted with a filter. For each determination, an MDI was attached to the USCA using a coupler. Immediately prior to attachment, the MDI was vigorously shaken. Prior to collection of the test sample, the MDI was primed by actuating four times and before each priming actuation the MDI was vigorously shaken. For each example tested, three MDIs were used. Each MDI was tested with a single actuation into the instrument at the beginning, middle, and end of the unit resulting in 3 actuations per MDI (9 actuations total). The flow rate through the equipment was regulated to 28.3 L/minute+/−0.5 L/minute. The test sample deposited in the USCA was collected by rinsing with a known volume of collection solvent. The recovered samples were then analyzed for sample content using an HPLC assay with reference to a known standard. An HPLC instrument with a UV detector (220 nm at 0 minutes, 240 nm at 5 minutes) and a symmetry shield RP18, 150 mm×4.6 mm (3.5 microns) column (temperature 25° C.) was used. The mobile phase was 10 mM SDS (sodium dodecyl sulphate), 60:40 (v/v) acetetonitrile:50 mM NH4OAc (ammonium acetate), pH 5.50. The injection volume was 50 microliters and the flow rate was 1.0 mL/minute.

[2] = Next Generation Impactor (NGI) aerodynamic particle size distribution; assay type: physicochemical
Description: The aerodynamic particle size distribution emitted from each MDI was evaluated using a Next Generation Impactor Instrument (MSP Corporation, Shoreview, Minn.). For each test, an MDI was attached to the throat component (Emmace anatomical throat, Emmace Consulting, Lund, Sweden) of the NGI instrument and actuated 6 times into the instrument. Prior to each actuation the MDI was vigorously shaken Immediately prior to attachment, the MDI was primed by actuating 4 times. Prior to each priming shot the MDI was vigorously shaken. The flow rate through the instrument during testing was regulated at 30 L/minute. The test sample (fluticasone furoate and vilanterol trifenatate) deposited on the valve stem, actuator, throat assembly (Emmace anatomical throat), individual uncoated collection cups 1-7, micro-orifice collector (MOC), and final filter component was collected by rinsing each individual component with a known volume of collection solvent. The recovered samples were then analyzed for sample content using an HPLC assay with reference to a known standard. An HPLC instrument with a UV detector (220 nm at 0 minutes, 240 nm at 5 minutes) and a symmetry shield RP-18, 4.6-150 mm column (25° C. column temp) was used. The mobile phase was 10 mM SDS, 60:40 (v/v) […]:50 mM NH4OAc, pH 5.5). The injection volume was 50 microliters and the flow rate was 1.0 mL/min.
In Table 1 the fine particle mass (FPM), impactor sized mass (ISM), mass median aerodynamic diameter (MMAD), and throat hold up data for fluticasone furoate (FF) and vilanterol trifenatate (VT) is presented. At each time point 3 individual MDIs were tested and the result is presented as the mean value.
Total Ex-valve content was determined as the sum of the sample content from all twelve analyzed components (valve stem through filter) (reported as micrograms/actuation).
Throat hold up was determined as the ratio of the sample content from the throat assembly divided by the total ex-valve content.
Aerodynamic particle size from a Relvar® Ellipta® 92/22 (fluticasone furoate/vilanterol trifenatate) dry powder inhaler was evaluated as described above for NGI studies with the following changes. The Relvar device was not primed prior to analysis, nor was it shaken prior to actuation. For each test the Relvar was actuated once. An adaptor was prepared and used to obtain a good fit between device mouthpiece and the Emmace throat. A flow rate of approximately 80 L/min was used to achieve a 4 kPa pressure drop in the NGI. A pre-separator was used between the throat assembly and cup 1. Cups 1 to 7 were pre-coated with 50:50 (v/v) glycerol:methanol.
In tables 1-8 above, FPM and ISM are reported as micrograms (mcg) per actuation and MMAD is reported in microns (um). FPM (Fine Particle Mass) was determined as the sum of the sample content determined for cups 3-7, the MOC, and the filter. ISM (Impactor Sized Mass) was determined as the sum of the sample content determined for cups 2-7, the MOC, and the filter. In the examples, the concentrations of fluticasone furoate, vilanterol trifenatate, ethanol, and HFA-227 in the suspension formulations are reported as weight percent (wt. %).

[3] = MDIs of Example 8 (58 microliter primeless valve, no ethanol, HFA-227)
[4] = MDIs of Example 9 (58 microliter primeless valve, 0.05% ethanol, HFA-227)
[5] = MDIs of Example 10 (58 microliter primeless valve, 0.5% ethanol, HFA-227)
[6] = Comparative Example 1: Relvar Ellipta 92/22 dry powder inhaler, actuated once, approximately 80 L/min (4 kPa), pre-separator
[7] = Comparative Example 1: Relvar Ellipta 92/22 dry powder inhaler, approximately 80 L/min (4 kPa), pre-separator
[8] = MDI of Example 1: FF MMD about 3.7 microns, VT MMD about 1.4 microns, HFA-227, 30 L/minute
[9] = MDI of Example 1: FF MMD about 3.7 microns, VT MMD about 1.4 microns, HFA-227, 30 L/minute, Emmace anatomical throat
[10] = MDI of Example 1: FF MMD about 3.7 microns, VT MMD about 1.4 microns, HFA-227, per actuation, 30 L/minute
[11] = MDI of Example 1: FF MMD about 3.7 microns, VT MMD about 1.4 microns, HFA-227, per actuation, 30 L/minute, mean of 3 MDIs
[12] = MDI of Example 2: FF MMD about 2.9 microns, VT MMD about 1.4 microns, HFA-227, 30 L/minute
[13] = MDI of Example 2: FF MMD about 2.9 microns, VT MMD about 1.4 microns, HFA-227, per actuation, 30 L/minute
[14] = MDI of Example 3: FF MMD about 3.7 microns, VT MMD about 4.2 microns, HFA-227, 30 L/minute
[15] = MDI of Example 3: FF MMD about 3.7 microns, VT MMD about 4.2 microns, HFA-227, per actuation, 30 L/minute
[16] = MDI of Example 4: FF MMD about 2.9 microns, VT MMD about 3.4 microns, HFA-227, 30 L/minute
[17] = MDI of Example 4: FF MMD about 2.9 microns, VT MMD about 3.4 microns, HFA-227, per actuation, 30 L/minute
[18] = MDI of Example 5: FF micronized MMD about 2.0 microns, VT high pressure homogenized MMD about 1.4 microns, HFA-227, 30 L/minute
[19] = MDI of Example 5: FF micronized MMD about 2.0 microns, VT high pressure homogenized MMD about 1.4 microns, HFA-227, per actuation, 30 L/minute
[20] = MDI of Example 6: FF MMD about 2.9 microns, VT MMD about 1.4 microns, 0.05% ethanol, HFA-227, 30 L/minute
[21] = MDI of Example 6: FF MMD about 2.9 microns, VT MMD about 1.4 microns, 0.05% ethanol, HFA-227, per actuation, 30 L/minute
[22] = MDI of Example 7: FF MMD about 2.9 microns, VT MMD about 1.4 microns, 0.5% ethanol, HFA-227, 30 L/minute
[23] = MDI of Example 7: FF MMD about 2.9 microns, VT MMD about 1.4 microns, 0.5% ethanol, HFA-227, per actuation, 30 L/minute

mean through life delivered dose [1, 3]	mean through life delivered dose [1, 4]	mean through life delivered dose [1, 5]	FPM (fine particle mass) [2, 6]	ISM (impactor sized mass) [2, 6]	MMAD (mass median aerodynamic diameter) [2, 7]	Throat hold up [2, 7]	MMAD (mass median aerodynamic diameter) [2, 8]	Throat hold up [2, 9]	ISM (impactor sized mass) [2, 10]	FPM (fine particle mass) [2, 11]	MMAD (mass median aerodynamic diameter) [2, 12]	Throat hold up [2, 12]	FPM (fine particle mass) [2, 13]	ISM (impactor sized mass) [2, 13]	MMAD (mass median aerodynamic diameter) [2, 14]	Throat hold up [2, 14]	FPM (fine particle mass) [2, 15]	ISM (impactor sized mass) [2, 15]	MMAD (mass median aerodynamic diameter) [2, 16]	SMILES	other results
13.8 micrograms/actuation	13.3 micrograms/actuation	14.4 micrograms/actuation	11.6 µg	12.3 µg	1.8 um	16.1%	1.9 um	34.0%	10.8 µg	10.0 µg	2.0 um	28.5%	9.9 µg	10.8 µg	3.7 um	43.4%	6.5 µg	8.9 µg	3.1 um	OCc1cc([C@@H](O)CNCCCCCCOCCOCc2c(Cl)cccc2Cl)ccc1O [VT, vilanterol trifenatate]	Throat hold up [2, 16]: 41.0%; FPM (fine particle mass) [2, 17]: 7.5 µg; ISM (impactor sized mass) [2, 17]: 9.8 µg; MMAD (mass median aerodynamic diameter) [2, 18]: 2.6 um; Throat hold up [2, 18]: 31.1%; FPM (fine particle mass) [2, 19]: 8.4 µg; ISM (impactor sized mass) [2, 19]: 9.5 µg; MMAD (mass median aerodynamic diameter) [2, 20]: 2.0 um; Throat hold up [2, 20]: 37.8%; FPM (fine particle mass) [2, 21]: 8.9 µg; ISM (impactor sized mass) [2, 21]: 9.9 µg; MMAD (mass median aerodynamic diameter) [2, 22]: 2.0 um; Throat hold up [2, 22]: 36.1%; FPM (fine particle mass) [2, 23]: 10.3 µg; ISM (impactor sized mass) [2, 23]: 11.2 µg
57.1 micrograms/actuation	55.5 micrograms/actuation	58.0 micrograms/actuation	26.5 µg	31.5 µg	3.4 um	26.0%	3.5 um	52.8%	27.7 µg	19.6 µg	3.1 um	38.8%	27.0 µg	35.9 µg	4.0 um	47.0%	25.0 µg	37.5 µg	3.2 um	C[C@@H]1C[C@H]2[C@@H]3C[C@H](F)C4=CC(=O)C=C[C@]4(C)[C@@]3(F)[C@@H](O)C[C@]2(C)[C@@]1(OC(=O)c1ccco1)C(=O)SCF [FF, fluticasone furoate]	Throat hold up [2, 16]: 43.0%; FPM (fine particle mass) [2, 17]: 28.5 µg; ISM (impactor sized mass) [2, 17]: 38.4 µg; MMAD (mass median aerodynamic diameter) [2, 18]: 2.9 um; Throat hold up [2, 18]: 31.5%; FPM (fine particle mass) [2, 19]: 30.2 µg; ISM (impactor sized mass) [2, 19]: 35.7 µg; MMAD (mass median aerodynamic diameter) [2, 20]: 3.2 um; Throat hold up [2, 20]: 48.6%; FPM (fine particle mass) [2, 21]: 23.1 µg; ISM (impactor sized mass) [2, 21]: 31.5 µg; MMAD (mass median aerodynamic diameter) [2, 22]: 3.0 um; Throat hold up [2, 22]: 46.0%; FPM (fine particle mass) [2, 23]: 26.3 µg; ISM (impactor sized mass) [2, 23]: 34.9 µg
